Measured values as given in US20230212142A9, “Substituted 5-Cyclopropyl-1H-pyrazole-3-yl-amine Derivatives as Selective CDK12/13 Inhibitors” (Aurigene Discovery Technologies Limited, priority 2019, published 2023).

How the values were obtained:
CDK13 = CDK13 (Homo sapiens, UniProt Q14004); test: Biochemical assay for CDK13 (LanthaScreen Eu Kinase Binding Assay); conditions: kinase tracer 236 100 nM, CDK13 5 nM
Protocol: LanthaScreen Eu Kinase Binding Assays are based on the binding and displacement of Alexa Fluor 647-labeled, ATP-competitive kinase inhibitor scaffold (kinase tracer) to the kinase of interest. Binding of the kinase tracer 236 (100 nM) to the CDK13 (5 nM) kinase is detected using a europium-labelled anti- GST tag antibody (2 nM), which binds to the kinase. Simultaneous binding of the tracer and antibody to the kinase results in a high degree of FRET (fluorescence resonance energy transfer) from the europium (Eu) donor fluorophore to the Alexa Fluor™ 647 acceptor fluorophore on the kinase tracer. Binding of an inhibitor to the kinase competes for binding with the tracer, resulting in a loss of FRET signal.

CDK7 [1] = biological target: T1, CDK7 (Homo sapiens, UniProt P50613); test: Biochemical assay for CDK7 (LANCE TR-FRET, ULight-MBP phosphorylation); conditions: CDK7 10 nM, ATP 1 mM/100 μM, 60 min pre-incubation
Protocol: The inhibitory activity of the test compounds was assessed by the LANCE TR-FRET assay, which detects the ATP-dependent phosphorylation of an ULight-myelin basic protein (MBP) substrate peptide (100 nM) by CDK7 (10 nM). Briefly, the enzyme reaction was run in reaction buffer (20 mM HEPES (pH 7.5), 10 mM MgCl2, 0.01% Triton x, 100 μM Sodium Orthovanadate, 1 mM DTT). The assay was performed in 384-well plate. The end concentration of the ATP substrate was 1 mM/100 μM, and that of the ULight-MBP substrate peptide was 100 nM, and of CDK7 was 10 nM. Pre-incubation of the compound and enzyme was performed for 60 min at room temperature. After 60 min incubation at room temperature, the reaction was terminated by the addition of 40 mM EDTA and 1 nM Eu-labeled anti-phospho-MBP-binding protein antibody in the buffer. Time-resolved fluorescence (excitation, 320 nm; emission donor, 615 nm; emission acceptor, 665 nm) was monitored by using 2030 multilabel reader Victor5 (PerkinElmer). The readout was calculated as (acceptor counts/donor counts)×1000. The IC50 values were derived by fitting a sigmoidal dose-response curve to a plot of assay readout over inhibitor concentration. All fits were computed with the program Prism 5.03 (Graph Pad Software, San Diego, Calif.).
Target sequence in this assay (P50613 whole entry, species assumed): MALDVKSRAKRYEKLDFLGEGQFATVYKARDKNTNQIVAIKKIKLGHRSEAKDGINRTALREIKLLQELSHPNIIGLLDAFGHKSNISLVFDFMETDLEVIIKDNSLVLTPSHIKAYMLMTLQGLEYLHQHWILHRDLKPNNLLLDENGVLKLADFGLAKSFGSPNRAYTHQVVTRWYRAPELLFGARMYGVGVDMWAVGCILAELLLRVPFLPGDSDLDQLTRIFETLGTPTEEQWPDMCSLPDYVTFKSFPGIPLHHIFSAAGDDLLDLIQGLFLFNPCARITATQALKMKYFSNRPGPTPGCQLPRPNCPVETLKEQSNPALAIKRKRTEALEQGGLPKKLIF
Target sequence in this assay (P51946 whole entry partner, species assumed): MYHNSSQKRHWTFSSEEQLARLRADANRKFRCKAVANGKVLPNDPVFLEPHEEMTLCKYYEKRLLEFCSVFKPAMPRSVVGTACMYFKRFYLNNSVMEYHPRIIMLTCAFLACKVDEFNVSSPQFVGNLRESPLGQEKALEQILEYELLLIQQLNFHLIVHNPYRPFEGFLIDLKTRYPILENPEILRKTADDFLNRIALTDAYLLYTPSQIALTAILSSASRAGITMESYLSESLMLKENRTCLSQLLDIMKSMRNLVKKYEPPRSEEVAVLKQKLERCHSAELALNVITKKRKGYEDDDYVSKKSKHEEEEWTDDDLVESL
Target sequence in this assay (P51948 whole entry partner, species assumed): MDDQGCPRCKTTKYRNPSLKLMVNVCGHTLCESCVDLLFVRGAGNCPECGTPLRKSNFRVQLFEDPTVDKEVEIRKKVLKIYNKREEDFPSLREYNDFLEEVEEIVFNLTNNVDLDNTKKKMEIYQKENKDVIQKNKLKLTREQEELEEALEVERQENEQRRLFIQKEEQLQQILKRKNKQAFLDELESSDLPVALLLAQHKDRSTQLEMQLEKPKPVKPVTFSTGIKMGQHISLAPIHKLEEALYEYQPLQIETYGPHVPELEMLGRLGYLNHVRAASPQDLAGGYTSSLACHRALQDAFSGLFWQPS

CDK12 [2] = biological target: T2, CDK12 (Homo sapiens, UniProt Q9NYV4); test: CDK12 plate based target engagement assay in Jurkat cells; type: cell-based; set-up: endogenous in cells; host or cells: Jurkat; conditions: 6 hours treatment, Bio-THZ531 competition
Protocol: Jurkat cells were treated with varying concentrations of the compound for 6 hours. The DMSO concentration was maintained at 0.1%. Cells were harvested and lysed. 200 μg of the lysate was incubated with 1 μM Bio-THZ531 in the presence of 1mM DTT and incubated on a rocker at 4° C. overnight. 100 μL of this sample was added to pre-washed streptavidin coated plates and incubated at room temperature on a rocker for 2 hours. The plates were washed and incubated with CDK12 antibody for overnight at 4° C. Next day the plate was washed and incubated for 2 hours with HRP labelled anti rabbit secondary antibody. Bio-THZ531 bound CDK12 was determined using TMB substrate. The plates were read using the M3 spectrophotometer at […]. Percentage CDK12 occupancy with the test compound was calculated over untreated control. Occupancy50 was calculated by fitting the dose response data to sigmoidal curve fitting equation using GraphPad Prism software V5.

CDK7 [3] = biological target: T1, CDK7; test: CDK7 target occupancy in Jurkat cells; type: cell-based; set-up: endogenous in cells; host or cells: Jurkat
Target sequence in this assay (P50613 2-346 limits assumed): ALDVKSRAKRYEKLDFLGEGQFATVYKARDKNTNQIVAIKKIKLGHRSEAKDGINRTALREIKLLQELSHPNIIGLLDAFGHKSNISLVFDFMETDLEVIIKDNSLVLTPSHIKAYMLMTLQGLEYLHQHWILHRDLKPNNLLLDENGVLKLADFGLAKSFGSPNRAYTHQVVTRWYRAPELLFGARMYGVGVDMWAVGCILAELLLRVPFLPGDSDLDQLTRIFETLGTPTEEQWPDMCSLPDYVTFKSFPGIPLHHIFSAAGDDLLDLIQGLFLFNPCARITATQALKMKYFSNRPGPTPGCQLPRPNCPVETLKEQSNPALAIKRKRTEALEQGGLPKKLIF
Target sequence in this assay (P51946 whole entry partner): as the sequence (P51946 whole entry partner, species assumed) above
Target sequence in this assay (P51948 whole entry partner): as the sequence (P51948 whole entry partner, species assumed) above

CDK12 [4] = biological target: T2, CDK12; test: Biochemical assay for CDK12 (kinase-tagged phage / qPCR competition binding); set-up: host or cells: E. coli BL21-derived host (T7 phage display) or HEK-293
Protocol: Kinase-tagged T7 phage strains were grown in parallel in 24-well blocks in an E. coli host derived from the BL21 strain. E. coli were grown to log-phase and infected with T7 phage from a frozen stock (multiplicity of infection=0.4) and incubated with shaking at 32° C. until lysis (90-150 minutes). The lysates were centrifuged (6,000×g) and filtered (0.2 μm) to remove cell debris. The remaining kinases were produced in HEK-293 cells and subsequently tagged with DNA for qPCR detection. Streptavidin-coated magnetic beads were treated with biotinylated small molecule ligands for 30 minutes at room temperature to generate affinity resins for kinase assays. The liganded beads were blocked with excess biotin and washed with blocking buffer (SeaBlock (Pierce), 1% BSA, 0.05% Tween 20, 1 mM
DTT) to remove unbound ligand and to reduce non-specific phage binding. Binding reactions were assembled by combining kinases, liganded affinity beads, and test compounds in lx binding buffer (20% SeaBlock, 0.17×PBS, 0.05% Tween 20, 6 mM DTT). Test compounds were prepared as 40× stocks in 100% DMSO and directly diluted into the assay. All reactions were performed in polypropylene 384-well plates in a final volume of 0.02 ml. The assay plates were incubated at room temperature with shaking for 1 hour and the affinity beads were washed with wash buffer (1 PBS, 0.05% Tween 20). The beads were then re-suspended in elution buffer (1× PBS, 0.05% Tween 20, 0.5 μM non-biotinylated affinity ligand) and incubated at room temperature with shaking for 30 minutes. The kinase concentration in the eluates was measured by qPCR.
Target sequence in this assay (Q9NYV4 whole entry, species assumed): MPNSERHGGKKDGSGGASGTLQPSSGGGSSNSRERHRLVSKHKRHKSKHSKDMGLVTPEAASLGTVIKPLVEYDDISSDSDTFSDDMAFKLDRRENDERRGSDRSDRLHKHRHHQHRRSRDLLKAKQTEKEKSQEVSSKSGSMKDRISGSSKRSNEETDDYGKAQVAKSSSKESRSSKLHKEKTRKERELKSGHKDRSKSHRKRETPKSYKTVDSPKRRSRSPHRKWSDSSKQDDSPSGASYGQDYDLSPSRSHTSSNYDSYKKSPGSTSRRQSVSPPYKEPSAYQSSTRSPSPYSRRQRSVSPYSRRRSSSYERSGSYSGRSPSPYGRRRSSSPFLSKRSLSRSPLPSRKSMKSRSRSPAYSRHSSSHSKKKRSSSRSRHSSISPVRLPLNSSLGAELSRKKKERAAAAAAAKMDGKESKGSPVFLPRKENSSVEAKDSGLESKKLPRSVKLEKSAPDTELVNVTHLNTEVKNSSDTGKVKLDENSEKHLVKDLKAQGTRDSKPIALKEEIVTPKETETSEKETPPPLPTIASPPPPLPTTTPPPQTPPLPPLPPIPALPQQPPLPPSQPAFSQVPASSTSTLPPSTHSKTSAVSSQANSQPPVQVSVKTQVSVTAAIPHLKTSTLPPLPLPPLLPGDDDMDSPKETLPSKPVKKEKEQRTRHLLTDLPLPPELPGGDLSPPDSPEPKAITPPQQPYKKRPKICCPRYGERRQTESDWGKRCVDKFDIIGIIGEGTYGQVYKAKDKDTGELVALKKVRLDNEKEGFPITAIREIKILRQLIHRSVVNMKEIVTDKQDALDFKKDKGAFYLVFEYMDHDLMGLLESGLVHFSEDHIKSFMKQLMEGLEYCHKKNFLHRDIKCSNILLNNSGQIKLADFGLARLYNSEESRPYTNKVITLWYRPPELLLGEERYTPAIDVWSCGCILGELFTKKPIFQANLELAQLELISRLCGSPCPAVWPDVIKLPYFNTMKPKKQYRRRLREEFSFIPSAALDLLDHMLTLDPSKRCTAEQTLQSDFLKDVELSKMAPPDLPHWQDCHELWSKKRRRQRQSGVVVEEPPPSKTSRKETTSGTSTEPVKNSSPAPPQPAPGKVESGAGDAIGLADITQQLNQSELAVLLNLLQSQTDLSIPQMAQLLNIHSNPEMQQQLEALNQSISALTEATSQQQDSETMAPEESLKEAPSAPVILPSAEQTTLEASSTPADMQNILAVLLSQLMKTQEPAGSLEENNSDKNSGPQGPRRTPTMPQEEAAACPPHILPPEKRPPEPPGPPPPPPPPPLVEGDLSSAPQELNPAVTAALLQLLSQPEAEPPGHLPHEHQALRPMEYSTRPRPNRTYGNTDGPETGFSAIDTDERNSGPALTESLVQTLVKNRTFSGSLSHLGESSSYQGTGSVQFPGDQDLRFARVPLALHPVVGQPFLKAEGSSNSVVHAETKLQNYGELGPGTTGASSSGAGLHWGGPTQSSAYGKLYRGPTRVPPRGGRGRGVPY

Sequence of CDK13 (Q14004 whole entry, species assumed): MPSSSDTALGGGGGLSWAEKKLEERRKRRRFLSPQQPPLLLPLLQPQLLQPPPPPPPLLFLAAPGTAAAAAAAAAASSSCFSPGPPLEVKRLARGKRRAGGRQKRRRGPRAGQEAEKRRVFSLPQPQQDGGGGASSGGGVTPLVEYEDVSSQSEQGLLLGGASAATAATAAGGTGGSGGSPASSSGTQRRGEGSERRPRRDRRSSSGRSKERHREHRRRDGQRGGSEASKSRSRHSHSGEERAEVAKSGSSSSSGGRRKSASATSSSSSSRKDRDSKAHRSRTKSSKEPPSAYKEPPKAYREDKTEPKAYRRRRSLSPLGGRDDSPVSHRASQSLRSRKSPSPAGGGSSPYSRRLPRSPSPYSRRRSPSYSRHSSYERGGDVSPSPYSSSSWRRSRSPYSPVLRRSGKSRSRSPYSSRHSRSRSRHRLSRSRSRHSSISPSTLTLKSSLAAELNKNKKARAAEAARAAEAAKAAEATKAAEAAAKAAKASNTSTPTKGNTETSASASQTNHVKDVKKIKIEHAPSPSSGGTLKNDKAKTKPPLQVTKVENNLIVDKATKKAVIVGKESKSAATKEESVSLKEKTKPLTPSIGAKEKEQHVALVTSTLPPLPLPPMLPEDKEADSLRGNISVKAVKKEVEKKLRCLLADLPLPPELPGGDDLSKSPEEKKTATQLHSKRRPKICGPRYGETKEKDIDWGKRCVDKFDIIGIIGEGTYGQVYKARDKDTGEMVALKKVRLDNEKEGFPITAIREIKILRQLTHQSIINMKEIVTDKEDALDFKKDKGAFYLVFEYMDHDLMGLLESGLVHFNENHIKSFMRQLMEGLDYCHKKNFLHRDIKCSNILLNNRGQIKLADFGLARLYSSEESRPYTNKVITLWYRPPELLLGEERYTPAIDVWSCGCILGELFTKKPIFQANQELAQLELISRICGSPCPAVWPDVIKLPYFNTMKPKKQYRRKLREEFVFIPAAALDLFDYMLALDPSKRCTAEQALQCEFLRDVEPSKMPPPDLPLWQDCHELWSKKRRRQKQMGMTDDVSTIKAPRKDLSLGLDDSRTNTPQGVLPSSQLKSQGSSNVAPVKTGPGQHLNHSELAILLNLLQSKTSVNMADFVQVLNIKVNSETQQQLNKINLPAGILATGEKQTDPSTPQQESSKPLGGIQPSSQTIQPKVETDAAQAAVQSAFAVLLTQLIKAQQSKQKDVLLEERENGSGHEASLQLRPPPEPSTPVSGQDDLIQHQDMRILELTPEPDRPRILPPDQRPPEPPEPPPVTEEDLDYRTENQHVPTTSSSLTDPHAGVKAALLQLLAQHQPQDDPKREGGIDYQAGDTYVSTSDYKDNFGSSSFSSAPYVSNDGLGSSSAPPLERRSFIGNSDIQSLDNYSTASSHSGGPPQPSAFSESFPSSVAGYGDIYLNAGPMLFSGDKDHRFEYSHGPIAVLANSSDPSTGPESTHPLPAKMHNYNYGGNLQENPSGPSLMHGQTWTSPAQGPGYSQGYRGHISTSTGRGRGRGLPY
Sequence of CDK13 (O75909 whole entry partner, species assumed): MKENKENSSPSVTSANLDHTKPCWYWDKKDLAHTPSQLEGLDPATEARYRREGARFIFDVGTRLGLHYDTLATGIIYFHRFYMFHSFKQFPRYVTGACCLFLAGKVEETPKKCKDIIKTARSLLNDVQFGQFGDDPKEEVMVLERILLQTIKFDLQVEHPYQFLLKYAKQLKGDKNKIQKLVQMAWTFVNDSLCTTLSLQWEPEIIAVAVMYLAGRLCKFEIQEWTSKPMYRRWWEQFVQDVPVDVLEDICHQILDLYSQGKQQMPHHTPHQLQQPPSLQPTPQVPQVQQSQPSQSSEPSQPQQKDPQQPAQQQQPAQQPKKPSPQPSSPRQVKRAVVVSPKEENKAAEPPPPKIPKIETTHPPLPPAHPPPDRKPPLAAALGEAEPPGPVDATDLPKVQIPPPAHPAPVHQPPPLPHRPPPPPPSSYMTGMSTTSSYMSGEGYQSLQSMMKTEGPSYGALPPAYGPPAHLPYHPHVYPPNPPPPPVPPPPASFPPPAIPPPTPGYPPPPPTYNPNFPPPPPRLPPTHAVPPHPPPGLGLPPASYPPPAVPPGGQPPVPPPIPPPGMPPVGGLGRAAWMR

IC50 (CDK13) | IC50 (CDK7 [1]) | Jurkat Cells, CDK12 Target Occ50 (CDK12 [2]) | Jurkat Cells, CDK7 Target Occ50 (CDK7 [3]) | Kd (CDK12 [4]) | Fold CDK7 Target Occ50 over CDK12 Target Occ50 (CDK7 [3]; printed in brackets beside the CDK7 Occ50) | SMILES
87.7 nM | 1310 nM | – | – | < 50 nM | – | C=CC(=O)NCc1ncc(-c2ccc([C@H](C)C(=O)Nc3cc(C4CC4)[nH]n3)cc2)cc1F [Compound 21, (S)-N-((5-(4-(1-((5-cyclopropyl-1H-pyrazol-3-yl)amino)-1-oxopropan-2-yl)phenyl)-3-fluoropyridin-2-yl)methyl)acrylamide]
20.9 nM | 5300 nM | – | – | < 50 nM | – | C=CC(=O)NCc1ccc(-c2ccc(C(C)C(=O)Nc3cc(C4CC4)[nH]n3)cc2)nc1 (centres unmarked) [Compound 22, N-((6-(4-(1-((5-cyclopropyl-1H-pyrazol-3-yl)amino)-1-oxopropan-2-yl)phenyl)pyridin-3-yl)methyl)acrylamide]
– | – | 0.23 µM | 0.61 µM | – | 2 × | C=CC(=O)NCc1ccc(-c2cccc(C(C)C(=O)Nc3cc(C4CC4)[nH]n3)c2)cn1 (centres unmarked) [Compound A]

Further lines, the molecule ahead of its results:

SMILES | IC50 (CDK13) | IC50 (CDK7 [1]) | Jurkat Cells, CDK12 Target Occ50 (CDK12 [2]) | Jurkat Cells, CDK7 Target Occ50 (CDK7 [3]) | Kd (CDK12 [4]) | Fold CDK7 Target Occ50 over CDK12 Target Occ50 (CDK7 [3]; printed in brackets beside the CDK7 Occ50)
C=CC(=O)NCc1ccc(-c2ccc([C@H](C)C(=O)Nc3cc(C4CC4)[nH]n3)cc2)cn1 [Compound 8, (S)-N-((5-(4-(1-((5-cyclopropyl-1H-pyrazol-3-yl)amino)-1-oxopropan-2-yl)phenyl)pyridin-2-yl)methyl)acrylamide] | 3.8 nM | 5380 nM | 0.022 µM | >>2 μM | < 50 nM | –
C=CC(=O)NC1(c2ccc(-c3ccc([C@H](C)C(=O)Nc4cc(C5CC5)[nH]n4)cc3)cn2)CC1 [Compound 18, (S)-N-(1-(5-(4-(1-((5-cyclopropyl-1H-pyrazol-3-yl)amino)-1-oxopropan-2-yl)phenyl)pyridin-2-yl)cyclopropyl)acrylamide] | 119 nM | 5450 nM | – | – | < 50 nM | –
C=CC(=O)NC(C)c1ccc(-c2ccc([C@H](C)C(=O)Nc3cc(C4CC4)[nH]n3)cc2)cn1 (stereo partly drawn) [Compound 20, N-(1-(5-(4-((S)-1-((5-cyclopropyl-1H-pyrazol-3-yl)amino)-1-oxopropan-2-yl)phenyl)pyridin-2-yl)ethyl)acrylamide] | 36.2 nM | 2870 nM | – | – | < 50 nM | –
